Data: PMC9571063 (Molecules, 2022)

What was measured:
Experiment in all cases: KINOMEscan
Format in all cases: binding
Conditions in all cases: read-out: Percent Control
[1] = target: T1, ABL1(F317L)-phosphorylated (Homo sapiens, UniProt P00519, F317L)
T1 construct: purchased Eurofins DiscoverX KINOMEscan (scanMAX 468)

ACVR2A = target: T2, ACVR2A (Homo sapiens, UniProt P27037)
T2 construct: purchased Eurofins DiscoverX KINOMEscan (scanMAX 468)

ACVRL1 = target: T3, ACVRL1 (Homo sapiens, UniProt P37023)
T3 construct: purchased Eurofins DiscoverX KINOMEscan (scanMAX 468)

ANKK1 = target: T4, ANKK1 (Homo sapiens, UniProt Q8NFD2)
T4 construct: purchased Eurofins DiscoverX KINOMEscan (scanMAX 468)
T4 sequence (Q8NFD2 whole entry): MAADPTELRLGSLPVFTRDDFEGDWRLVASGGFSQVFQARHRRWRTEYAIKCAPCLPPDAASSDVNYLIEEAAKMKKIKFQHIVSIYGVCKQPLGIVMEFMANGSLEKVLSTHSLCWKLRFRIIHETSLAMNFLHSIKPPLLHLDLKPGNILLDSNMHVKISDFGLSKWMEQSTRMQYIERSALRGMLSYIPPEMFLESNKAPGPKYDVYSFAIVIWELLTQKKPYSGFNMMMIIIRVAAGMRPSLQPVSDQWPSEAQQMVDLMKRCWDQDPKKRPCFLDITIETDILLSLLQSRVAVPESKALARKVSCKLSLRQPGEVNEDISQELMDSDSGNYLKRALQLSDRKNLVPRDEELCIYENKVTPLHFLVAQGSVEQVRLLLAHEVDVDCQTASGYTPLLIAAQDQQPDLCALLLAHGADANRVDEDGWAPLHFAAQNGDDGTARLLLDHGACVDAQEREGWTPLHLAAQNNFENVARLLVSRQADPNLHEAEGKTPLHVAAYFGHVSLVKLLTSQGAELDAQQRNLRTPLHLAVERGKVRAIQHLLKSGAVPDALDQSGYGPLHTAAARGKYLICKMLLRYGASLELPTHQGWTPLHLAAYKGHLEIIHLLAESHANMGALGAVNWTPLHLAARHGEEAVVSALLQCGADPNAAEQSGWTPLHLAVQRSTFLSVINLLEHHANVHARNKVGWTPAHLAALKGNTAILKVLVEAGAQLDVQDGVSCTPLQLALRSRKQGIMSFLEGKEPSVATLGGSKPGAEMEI

BLK = target: T5, BLK (Homo sapiens, UniProt P51451)
T5 construct: purchased Eurofins DiscoverX KINOMEscan (scanMAX 468)
T5 sequence (P51451 whole entry): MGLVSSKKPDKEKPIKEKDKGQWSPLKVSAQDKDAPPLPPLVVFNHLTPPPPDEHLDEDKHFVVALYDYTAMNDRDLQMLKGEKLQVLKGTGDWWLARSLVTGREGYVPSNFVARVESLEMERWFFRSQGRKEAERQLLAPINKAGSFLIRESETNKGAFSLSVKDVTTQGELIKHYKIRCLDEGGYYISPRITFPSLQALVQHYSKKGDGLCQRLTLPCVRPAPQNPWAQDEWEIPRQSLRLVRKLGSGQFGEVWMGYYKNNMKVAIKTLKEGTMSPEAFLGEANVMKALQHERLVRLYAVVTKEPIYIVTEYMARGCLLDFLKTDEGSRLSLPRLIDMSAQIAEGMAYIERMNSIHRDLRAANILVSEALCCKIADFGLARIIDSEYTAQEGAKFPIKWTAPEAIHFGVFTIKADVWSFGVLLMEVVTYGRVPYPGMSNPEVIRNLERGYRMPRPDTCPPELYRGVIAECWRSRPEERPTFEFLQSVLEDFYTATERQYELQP

CDK2 = target: T6, CDK2 (Homo sapiens, UniProt P24941)
T6 construct: purchased Eurofins DiscoverX KINOMEscan (scanMAX 468)

DDR2 = target: T7, DDR2 (Homo sapiens, UniProt Q16832)
T7 construct: purchased Eurofins DiscoverX KINOMEscan (scanMAX 468)

EGFR(G719C) = target: T8, EGFR(G719C) (Homo sapiens, UniProt P00533, G719C)
T8 construct: purchased Eurofins DiscoverX KINOMEscan (scanMAX 468)

EGFR(L858R,T790M) = target: T9, EGFR(L858R,T790M) (Homo sapiens, UniProt P00533, L858R/T790M)
T9 construct: purchased Eurofins DiscoverX KINOMEscan (scanMAX 468)

EPHA7 = target: T10, EPHA7 (Homo sapiens, UniProt Q15375)
T10 construct: purchased Eurofins DiscoverX KINOMEscan (scanMAX 468)

EPHB4 = target: T11, EPHB4 (Homo sapiens, UniProt P54760)
T11 construct: purchased Eurofins DiscoverX KINOMEscan (scanMAX 468)

FGFR1 = target: T12, FGFR1 (Homo sapiens, UniProt P11362)
T12 construct: purchased Eurofins DiscoverX KINOMEscan (scanMAX 468)

GRK1 = target: T13, GRK1 (Homo sapiens, UniProt Q15835)
T13 construct: purchased Eurofins DiscoverX KINOMEscan (scanMAX 468)

GRK4 = target: T14, GRK4 (Homo sapiens, UniProt P32298)
T14 construct: purchased Eurofins DiscoverX KINOMEscan (scanMAX 468)

HIPK1 = target: T15, HIPK1 (Homo sapiens, UniProt Q86Z02)
T15 construct: purchased Eurofins DiscoverX KINOMEscan (scanMAX 468)

IGF1R = target: T16, IGF1R (Homo sapiens, UniProt P08069)
T16 construct: purchased Eurofins DiscoverX KINOMEscan (scanMAX 468)

JNK3 = target: T17, JNK3 (Homo sapiens, UniProt P53779)
T17 construct: purchased Eurofins DiscoverX KINOMEscan (scanMAX 468)

LATS1 = target: T18, LATS1 (Homo sapiens, UniProt O95835)
T18 construct: purchased Eurofins DiscoverX KINOMEscan (scanMAX 468)

MARK1 = target: T19, MARK1 (Homo sapiens, UniProt Q9P0L2)
T19 construct: purchased Eurofins DiscoverX KINOMEscan (scanMAX 468)

MEK4 = target: T20, MEK4 (Homo sapiens, UniProt P45985)
T20 construct: purchased Eurofins DiscoverX KINOMEscan (scanMAX 468)
T20 sequence (P45985 whole entry): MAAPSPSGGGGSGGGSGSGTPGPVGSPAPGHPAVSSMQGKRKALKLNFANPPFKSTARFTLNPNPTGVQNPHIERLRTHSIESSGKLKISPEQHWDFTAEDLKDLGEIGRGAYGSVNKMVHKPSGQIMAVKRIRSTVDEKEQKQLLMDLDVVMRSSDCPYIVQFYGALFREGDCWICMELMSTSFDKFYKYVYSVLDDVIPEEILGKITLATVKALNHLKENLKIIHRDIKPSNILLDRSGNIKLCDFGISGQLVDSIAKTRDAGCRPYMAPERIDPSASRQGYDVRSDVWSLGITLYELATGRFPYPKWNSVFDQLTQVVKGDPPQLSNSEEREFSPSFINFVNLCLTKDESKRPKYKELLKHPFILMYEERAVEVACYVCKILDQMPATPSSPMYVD

MST3 = target: T21, MST3 (Homo sapiens, UniProt Q9Y6E0)
T21 construct: purchased Eurofins DiscoverX KINOMEscan (scanMAX 468)
T21 sequence (Q9Y6E0 whole entry): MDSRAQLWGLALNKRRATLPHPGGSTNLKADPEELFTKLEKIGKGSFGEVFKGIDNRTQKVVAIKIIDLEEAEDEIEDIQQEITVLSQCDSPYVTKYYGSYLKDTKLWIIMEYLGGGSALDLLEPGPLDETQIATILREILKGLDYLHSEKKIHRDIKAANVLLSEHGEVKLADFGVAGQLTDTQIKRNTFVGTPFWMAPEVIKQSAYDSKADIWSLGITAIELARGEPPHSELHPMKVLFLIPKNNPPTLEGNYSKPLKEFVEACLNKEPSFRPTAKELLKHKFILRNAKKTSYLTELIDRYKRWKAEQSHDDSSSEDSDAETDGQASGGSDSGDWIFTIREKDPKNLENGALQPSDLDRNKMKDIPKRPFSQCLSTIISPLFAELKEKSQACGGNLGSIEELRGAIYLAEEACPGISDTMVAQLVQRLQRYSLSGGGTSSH

MYLK4 = target: T22, MYLK4 (Homo sapiens, UniProt Q86YV6)
T22 construct: purchased Eurofins DiscoverX KINOMEscan (scanMAX 468)
T22 sequence (Q86YV6 whole entry): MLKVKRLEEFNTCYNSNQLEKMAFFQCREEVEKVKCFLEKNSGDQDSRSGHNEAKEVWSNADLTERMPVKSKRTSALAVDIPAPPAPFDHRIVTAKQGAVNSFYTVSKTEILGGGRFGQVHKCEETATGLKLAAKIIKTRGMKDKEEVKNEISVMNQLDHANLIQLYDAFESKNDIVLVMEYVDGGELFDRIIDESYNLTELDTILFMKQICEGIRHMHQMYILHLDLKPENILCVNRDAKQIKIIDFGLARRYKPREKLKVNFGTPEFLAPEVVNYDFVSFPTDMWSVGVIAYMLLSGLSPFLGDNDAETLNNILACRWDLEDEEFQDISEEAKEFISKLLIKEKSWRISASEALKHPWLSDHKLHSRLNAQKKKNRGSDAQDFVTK

NDR2 = target: T23, NDR2 (Homo sapiens, UniProt Q9Y2H1)
T23 construct: purchased Eurofins DiscoverX KINOMEscan (scanMAX 468)

NIK = target: T24, NIK (Homo sapiens, UniProt Q99558)
T24 construct: purchased Eurofins DiscoverX KINOMEscan (scanMAX 468)

PDGFRA = target: T25, PDGFRA (Homo sapiens, UniProt P16234)
T25 construct: purchased Eurofins DiscoverX KINOMEscan (scanMAX 468)

PIK3CA(E545A) = target: T26, PIK3CA(E545A) (Homo sapiens, UniProt P42336, E545A)
T26 construct: purchased Eurofins DiscoverX KINOMEscan (scanMAX 468)

PIK3CB = target: T27, PIK3CB (Homo sapiens, UniProt P42338)
T27 construct: purchased Eurofins DiscoverX KINOMEscan (scanMAX 468)

PKN1 = target: T28, PKN1 (Homo sapiens, UniProt Q16512)
T28 construct: purchased Eurofins DiscoverX KINOMEscan (scanMAX 468)

PLK1 = target: T29, PLK1 (Homo sapiens, UniProt P53350)
T29 construct: purchased Eurofins DiscoverX KINOMEscan (scanMAX 468)

PRKCH = target: T30, PRKCH (Homo sapiens, UniProt P24723)
T30 construct: purchased Eurofins DiscoverX KINOMEscan (scanMAX 468)
T30 sequence (P24723 whole entry): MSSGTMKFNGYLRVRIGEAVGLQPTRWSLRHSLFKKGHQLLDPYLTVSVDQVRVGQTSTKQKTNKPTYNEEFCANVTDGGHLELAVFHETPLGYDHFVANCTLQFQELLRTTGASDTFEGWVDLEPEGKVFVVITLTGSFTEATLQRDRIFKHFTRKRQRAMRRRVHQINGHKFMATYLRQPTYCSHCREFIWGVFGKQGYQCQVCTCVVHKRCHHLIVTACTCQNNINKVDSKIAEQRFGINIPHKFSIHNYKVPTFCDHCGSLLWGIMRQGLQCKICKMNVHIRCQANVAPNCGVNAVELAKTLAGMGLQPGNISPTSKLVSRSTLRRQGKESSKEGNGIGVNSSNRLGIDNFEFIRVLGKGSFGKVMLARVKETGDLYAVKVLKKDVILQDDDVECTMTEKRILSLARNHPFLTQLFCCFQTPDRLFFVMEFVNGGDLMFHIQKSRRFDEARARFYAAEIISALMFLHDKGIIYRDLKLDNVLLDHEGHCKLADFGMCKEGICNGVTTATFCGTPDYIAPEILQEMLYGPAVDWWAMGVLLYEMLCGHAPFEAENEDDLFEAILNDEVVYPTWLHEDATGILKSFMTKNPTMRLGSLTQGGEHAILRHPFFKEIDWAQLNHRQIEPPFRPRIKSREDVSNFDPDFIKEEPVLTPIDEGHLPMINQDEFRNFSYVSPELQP

PRKD1 = target: T31, PRKD1 (Homo sapiens, UniProt Q15139)
T31 construct: purchased Eurofins DiscoverX KINOMEscan (scanMAX 468)

PRKD3 = target: T32, PRKD3 (Homo sapiens, UniProt O94806)
T32 construct: purchased Eurofins DiscoverX KINOMEscan (scanMAX 468)
T32 sequence (O94806 whole entry): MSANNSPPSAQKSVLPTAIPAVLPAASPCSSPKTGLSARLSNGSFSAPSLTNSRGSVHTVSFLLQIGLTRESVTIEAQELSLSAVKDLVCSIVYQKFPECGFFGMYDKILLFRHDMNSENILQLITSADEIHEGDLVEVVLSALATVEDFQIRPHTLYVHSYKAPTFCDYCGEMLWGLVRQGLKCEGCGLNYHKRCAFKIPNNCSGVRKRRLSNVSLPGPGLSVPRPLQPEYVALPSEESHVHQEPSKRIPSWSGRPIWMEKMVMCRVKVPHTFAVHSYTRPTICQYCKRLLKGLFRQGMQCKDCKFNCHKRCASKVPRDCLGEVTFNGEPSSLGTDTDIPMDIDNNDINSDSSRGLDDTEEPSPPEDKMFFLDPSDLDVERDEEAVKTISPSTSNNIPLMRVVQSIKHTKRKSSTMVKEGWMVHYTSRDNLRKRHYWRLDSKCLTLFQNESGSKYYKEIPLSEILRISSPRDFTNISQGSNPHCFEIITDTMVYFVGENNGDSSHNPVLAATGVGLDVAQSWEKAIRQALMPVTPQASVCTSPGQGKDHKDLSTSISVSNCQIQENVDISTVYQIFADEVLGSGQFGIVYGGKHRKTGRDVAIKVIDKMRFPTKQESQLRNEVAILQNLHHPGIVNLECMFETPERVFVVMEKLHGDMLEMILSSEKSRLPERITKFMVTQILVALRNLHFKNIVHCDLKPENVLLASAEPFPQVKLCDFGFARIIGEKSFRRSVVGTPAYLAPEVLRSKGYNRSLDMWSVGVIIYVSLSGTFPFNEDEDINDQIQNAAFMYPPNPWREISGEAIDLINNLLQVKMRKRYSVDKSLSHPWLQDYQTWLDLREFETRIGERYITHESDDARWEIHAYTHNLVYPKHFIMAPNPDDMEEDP

[2] = target: T33, RPS6KA4(Kin.Dom.2-C-terminal) (Homo sapiens, UniProt O75676)
T33 construct: RPS6KA4(Kin.Dom.2-C-terminal); purchased Eurofins DiscoverX KINOMEscan (scanMAX 468)

[3] = target: T34, RSK1(Kin.Dom.2-C-terminal) (Homo sapiens, UniProt Q15418)
T34 construct: RSK1(Kin.Dom.2-C-terminal); purchased Eurofins DiscoverX KINOMEscan (scanMAX 468)

[4] = target: T35, RSK3(Kin.Dom.1-N-terminal) (Homo sapiens, UniProt Q15349)
T35 construct: RSK3(Kin.Dom.1-N-terminal); purchased Eurofins DiscoverX KINOMEscan (scanMAX 468)
T35 sequence (Q15349 1-388 limits assumed): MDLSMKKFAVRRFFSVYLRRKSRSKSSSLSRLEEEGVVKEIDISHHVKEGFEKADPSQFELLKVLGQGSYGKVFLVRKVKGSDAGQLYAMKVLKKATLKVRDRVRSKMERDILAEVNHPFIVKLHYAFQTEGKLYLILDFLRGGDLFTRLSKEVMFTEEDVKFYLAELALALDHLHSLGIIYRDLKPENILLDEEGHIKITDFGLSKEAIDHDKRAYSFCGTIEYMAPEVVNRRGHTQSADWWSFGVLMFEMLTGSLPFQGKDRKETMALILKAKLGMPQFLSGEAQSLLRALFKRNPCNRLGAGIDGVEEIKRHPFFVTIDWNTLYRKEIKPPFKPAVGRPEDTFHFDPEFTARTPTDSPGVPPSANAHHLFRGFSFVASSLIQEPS

SNARK = target: T36, SNARK (Homo sapiens, UniProt Q9H093)
T36 construct: purchased Eurofins DiscoverX KINOMEscan (scanMAX 468)

TRKA = target: T37, TRKA (Homo sapiens, UniProt P04629)
T37 construct: purchased Eurofins DiscoverX KINOMEscan (scanMAX 468)

TSSK1B = target: T38, TSSK1B (Homo sapiens, UniProt Q9BXA7)
T38 construct: purchased Eurofins DiscoverX KINOMEscan (scanMAX 468)
T38 sequence (Q9BXA7 whole entry): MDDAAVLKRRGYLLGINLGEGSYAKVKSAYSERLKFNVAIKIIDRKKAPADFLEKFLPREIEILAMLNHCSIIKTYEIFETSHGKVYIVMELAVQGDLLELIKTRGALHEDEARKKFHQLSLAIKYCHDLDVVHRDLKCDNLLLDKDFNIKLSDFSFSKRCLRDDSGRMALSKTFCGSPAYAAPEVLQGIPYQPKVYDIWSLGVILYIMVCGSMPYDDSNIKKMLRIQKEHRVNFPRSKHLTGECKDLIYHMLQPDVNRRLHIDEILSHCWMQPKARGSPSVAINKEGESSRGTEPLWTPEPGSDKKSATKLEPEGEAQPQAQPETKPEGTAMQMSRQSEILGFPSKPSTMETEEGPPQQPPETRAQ

TXK = target: T39, TXK (Homo sapiens, UniProt P42681)
T39 construct: purchased Eurofins DiscoverX KINOMEscan (scanMAX 468)

ULK2 = target: T40, ULK2 (Homo sapiens, UniProt Q8IYT8)
T40 construct: purchased Eurofins DiscoverX KINOMEscan (scanMAX 468)

VPS34 = target: T41, VPS34 (Homo sapiens, UniProt Q8NEB9)
T41 construct: purchased Eurofins DiscoverX KINOMEscan (scanMAX 468)

## Cc1ccc(-n2cc(COc3cccc4cnc(Nc5cccc(Cl)c5)nc34)nn2)c([N+](=O)[O-])c1 [DB18]
[1]
  remaining binding at 1 µM: 100%
ACVR2A
  remaining binding at 1 µM: 100%
ACVRL1
  remaining binding at 1 µM: 93%
ANKK1
  remaining binding at 1 µM: 100%
BLK
  remaining binding at 1 µM: 100%
CDK2
  remaining binding at 1 µM: 100%
DDR2
  remaining binding at 1 µM: 100%
EGFR(G719C)
  remaining binding at 1 µM: 100%
EGFR(L858R,T790M)
  remaining binding at 1 µM: 100%
EPHA7
  remaining binding at 1 µM: 100%
EPHB4
  remaining binding at 1 µM: 100%
FGFR1
  remaining binding at 1 µM: 100%
GRK1
  remaining binding at 1 µM: 97%
GRK4
  remaining binding at 1 µM: 100%
HIPK1
  remaining binding at 1 µM: 19%
IGF1R
  remaining binding at 1 µM: 100%
JNK3
  remaining binding at 1 µM: 95%
LATS1
  remaining binding at 1 µM: 99%
MARK1
  remaining binding at 1 µM: 99%
MEK4
  remaining binding at 1 µM: 100%
MST3
  remaining binding at 1 µM: 100%
MYLK4
  remaining binding at 1 µM: 94%
NDR2
  remaining binding at 1 µM: 95%
NIK
  remaining binding at 1 µM: 86%
PDGFRA
  remaining binding at 1 µM: 100%
PIK3CA(E545A)
  remaining binding at 1 µM: 100%
PIK3CB
  remaining binding at 1 µM: 100%
PKN1
  remaining binding at 1 µM: 100%
PLK1
  remaining binding at 1 µM: 100%
PRKCH
  remaining binding at 1 µM: 100%
PRKD1
  remaining binding at 1 µM: 100%
PRKD3
  remaining binding at 1 µM: 100%
[2]
  remaining binding at 1 µM: 100%
[3]
  remaining binding at 1 µM: 100%
[4]
  remaining binding at 1 µM: 100%
SNARK
  remaining binding at 1 µM: 100%
TRKA
  remaining binding at 1 µM: 8.9%
TSSK1B
  remaining binding at 1 µM: 100%
TXK
  remaining binding at 1 µM: 96%
ULK2
  remaining binding at 1 µM: 100%
VPS34
  remaining binding at 1 µM: 100%
